From patent publication US11173144B2, “Adrenergic receptor modulating compounds and methods of using the same” (The Board of Trustees of the Leland Stanford Junior …, priority 2016, dated 2021)

What was measured:
[1] = Plasma versus brain concentration after subcutaneous administration in mice; details: mouse, in vivo
Protocol: The concentration of selected compounds in plasma (FIG. 8A) versus concentration in brain (FIG. 8A) was assessed after administration in a mice. Briefly, mice are administered with selected compounds via subcutaneous route. Thirty minutes after the compound administration, plasma and brain samples are collected. Concentrations of the selected compounds in plasma and brains are determined by LC/MS/MS.

[2] = tested on: Transgenic mice expressing amyloid beta protein precursor (APP); assay: Morris water maze in transgenic mice expressing amyloid beta protein precursor (APP); format: in vivo; details: 10 mg/kg subcutaneous, chronic
Protocol: Mice are tested in a large water tank (178 cm in diameter; 22.0±1.5° C.) with a submerged 17 cm diameter circular platform (˜1 cm below the water surface and ˜50 cm away from the wall). Non-toxic tempera paints (Elmers) are used to make the water opaque. Privacy blinds with four different visual cues surrounded the tank and are located ˜150 cm from the center of the tank. Testing is performed under dim white light (40 Lux at the water surface). Activity is monitored with Ethovision via an overhead video system. Mice complete 4-6 days of hidden platform training (60 seconds to locate the platform when released from a pseudorandomized drop location). […] Successful leaming of MWM is determined by reduced escape latency and discriminative quadrant exploration during the probe trial. […]
Transgenic mice expressing amyloid beta protein precursor (APP) and wild-type mice were chronically administered with KSN01-01-18 (10 mg/kg, subcutaneous). Changes on body weight were recorded. Effects of KSN01-01-18 on cognitive function were evaluated in Morris water maze (MWM). […] Successful learning of MWM was determined by the gradual decrease in escape latency during the hidden platform training and discriminative quadrant exploration and latency to reach virtual platform during the probe trial.

[3] = Body weight changes on chronic administration in mice; format: in vivo; details: 10 mg/kg subcutaneous
Protocol: Transgenic mice expressing amyloid beta protein precursor (APP) and wild-type mice were chronically administered with KSN01-01-18 (10 mg/kg, subcutaneous). Changes on body weight were recorded. Effects of KSN01-01-18 on cognitive function were evaluated in Morris water maze (MWM). Briefly, In the MWM, a large water tank (178 cm in diameter) filled with water was used. A circular platform was placed about 1 cm below the water surface approximately 17 cm away from the wall in one 20 quadrant of the tank. Nontoxic tempera paints were used to make the water opaque. During the consecutive days of hidden platform training, mice were released from drop locations and given 60 sec to find the platform. Upon completion of the hidden platform training, the platform was removed and a 60-sec probe trial was conducted. Successful learning of MWM was determined by the gradual decrease in escape latency during the hidden platform training and discriminative quadrant exploration and latency to reach virtual platform during the probe trial.

[4] = tested on: C57BI/6J female mice; assay: 24 day administration, lung and heart weight and fibrosis; format: in vivo; details: 10 mg/kg for 24 days
Protocol: C57BI/6J female mice were administered with isoproterenol, KSN01-01-15, or KSN01-01-18 at 10 mg/kg for 24 days. After 24 days of treatment, mice were sacrificed, and lung and heart weight were measured. Hearts were then fixed in 10% formalin, and stained with Masson trichrome for evaluation of fibrosis.

| Structure (SMILES) | crossing the blood brain barrier [1] | cognitive function in Morris water maze (time to find the virtual platform) [2] | general toxicity as measured by changes in body weight [3] | fibrotic changes in heart and heart weight [4] | fibrotic changes in lung and lung weight [4] | morphological changes in heart [4] |
| --- | --- | --- | --- | --- | --- | --- |
| Cc1n[nH]c2cccc(OC[C@@H](O)CNCCNC(=O)N3CCOCC3)c12 [Compound 38] | not capable of crossing the blood brain barrier | – | – | – | – | – |
| Cc1n[nH]c2cccc(OC[C@@H](O)CNCc3ccn(C)n3)c12 [Compound 92] | – | cognitive enhancing effects | does not cause general toxicity | did not induce these changes | did not induce these changes | did not induce these changes |
